Data from US20260242419A1, “A CYCLIC PEPTIDE FOR TRAPPING INTERLEUKIN-1 BETA” (Merck Sharp & Dohme LLC, priority 2023, published 2026).
Starred links: 1 amine or outer side, 2 acyl side, 3 side chain; linkers in the order of their positions; H or OH if unused. Non-standard residues stand in square brackets, D forms with d. Residues, ends and D or L forms follow the SMILES beside them. dPro(4R-(4-pyridylmethyl)) = O=C(O)[C@H]1C[C@@H](Cc2ccncc2)CN1; Ala(piperidin-4-yl) = O=C([C@H](CC1CCN([*:3])CC1)N[*:1])[*:2]; Trp(βS-Me,4-F) = C[C@@H](c1c[nH]c2cccc(F)c12)[C@H](N)C(=O)O; Bip(4'-COOH) = N[C@@H](Cc1ccc(-c2ccc(C(=O)O)cc2)cc1)C(=O)O; dPro(4R-Bzl(4-F)) = O=C(O)[C@H]1C[C@@H](Cc2ccc(F)cc2)CN1; dPro(3S-(4-F-Bn)) = O=C(O)[C@@H]1NCC[C@@H]1Cc1ccc(F)cc1; Ala(morpholin-4-yl) = N[C@@H](CN1CCOCC1)C(=O)O; Ala(pyrimidin-5-yl) = N[C@@H](Cc1cncnc1)C(=O)O; Phe(4-COOH) = N[C@@H](Cc1ccc(C(=O)O)cc1)C(=O)O; Phe(4-tBu) = CC(C)(C)c1ccc(C[C@H](N)C(=O)O)cc1; Ala(2-pyrazinyl) = N[C@@H](Cc1cnccn1)C(=O)O; X34 = C[N+](C)(C)CC[C@H](N[*:1])C(=O)[*:2]; Phe(3-Cl) = N[C@@H](Cc1cccc(Cl)c1)C(=O)O; Pro(cis-4-F) = O=C(O)[C@@H]1C[C@H](F)CN1; X45 = Cc1cc(C[C@H](N[*:1])C(=O)[*:2])no1; Ala(4-THP) = N[C@@H](CC1CCOCC1)C(=O)O; X38 = O=C([C@H](Cc1ncco1)N[*:1])[*:2]; X6 = O=C([C@H](Cc1ccncn1)N[*:1])[*:2]; AEF = NCCOc1ccc(C[C@H](N)C(=O)O)cc1; d(αMeD) = C[C@@](N)(CC(=O)O)C(=O)O; h4Pal = N[C@@H](CCc1ccncc1)C(=O)O; 4Pal = N[C@@H](Cc1ccncc1)C(=O)O; Dab = NCC[C@H](N)C(=O)O; Aib = CC(C)(N)C(=O)O

Target: T1, IL-1β (Homo sapiens, UniProt P01584)
T1 construct: purchased BioLegend 579404
Assay: IL-6 assay in MRC5 cells: inhibition of IL-1β induced IL-6 secretion (AlphaLISA)
Format: cell-based
Details: inhibition of IL-1β induced IL-6 secretion in MRC5 cells; read-out: MRC5 IC50
Outline: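 Compound was pre-incubated 1 h at ambient temperature with recombinant human IL-1β at 2λ EC80 before adding human lung fibroblast MRC5 cells (3000/well) in EMEM with 0.025% BSA. After overnight culture at 37 °C, 5% CO2, secreted IL-6 in conditioned medium was measured by AlphaLISA; IC50 from 4-parameter logistic fits.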

T1 sequence (P01584 117-269): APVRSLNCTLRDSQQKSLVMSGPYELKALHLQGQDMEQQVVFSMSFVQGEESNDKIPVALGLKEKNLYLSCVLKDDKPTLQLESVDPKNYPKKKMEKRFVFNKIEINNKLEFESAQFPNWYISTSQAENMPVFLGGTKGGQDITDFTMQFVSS

Structure (SMILES)	IC50
CC(=O)NCCOc1ccc(C[C@@H]2NC(=O)[C@H]3C[C@@H](Cc4ccncc4)CN3C(=O)CNC(=O)[C@H](CCN)NC(=O)[C@H](CCC(N)=O)NC(=O)[C@H](Cc3cccc(Cl)c3)NC(=O)C(C)(C)NC(=O)[C@H](Cc3c[nH]c4ccccc34)NC(=O)[C@H](CCC(=O)O)NC(=O)C(C)(C)NC(=O)[C@H]([C@@H](C)c3c[nH]c4cccc(F)c34)NC(=O)[C@@H]3C[C@H](F)CN3C(=O)CNC(=O)[C@H](Cc3ccc(C(=O)O)cc3)NC(=O)[C@H](Cc3ccncc3)NC2=O)cc1 [Example 309] (cyclo([AEF](Ac)[4Pal][Phe(4-COOH)]G[Pro(cis-4-F)][Trp(βS-Me,4-F)][Aib]EW[Aib][Phe(3-Cl)]Q[Dab]G[dPro(4R-(4-pyridylmethyl))]))	0.018 nM
CC(=O)NCCOc1ccc(C[C@@H]2NC(=O)[C@H]3C[C@@H](Cc4ccncc4)CN3C(=O)CNC(=O)[C@H](CCN)NC(=O)[C@H](CCC(N)=O)NC(=O)[C@H](Cc3ccc(O)cc3)NC(=O)C(C)(C)NC(=O)[C@H](Cc3c[nH]c4ccccc34)NC(=O)[C@H](CCC(=O)O)NC(=O)C(C)(C)NC(=O)[C@H]([C@@H](C)c3c[nH]c4cccc(F)c34)NC(=O)[C@@H]3C[C@H](F)CN3C(=O)CNC(=O)[C@H](Cc3ccc(C(=O)O)cc3)NC(=O)[C@H](Cc3ccncc3)NC2=O)cc1 [Example 310] (cyclo([AEF](Ac)[4Pal][Phe(4-COOH)]G[Pro(cis-4-F)][Trp(βS-Me,4-F)][Aib]EW[Aib]YQ[Dab]G[dPro(4R-(4-pyridylmethyl))]))	0.017 nM
C[C@@H](c1c[nH]c2cccc(F)c12)[C@@H]1NC(=O)[C@@H]2C[C@H](F)CN2C(=O)CNC(=O)[C@H](Cc2ccc(C(=O)O)cc2)NC(=O)[C@H](Cc2ccncc2)NC(=O)[C@H](Cc2ccc(C(C)(C)C)cc2)NC(=O)[C@H]2C[C@@H](Cc3ccncc3)CN2C(=O)CNC(=O)[C@H](CCN)NC(=O)[C@H](CCC(N)=O)NC(=O)[C@H](Cc2cncnc2)NC(=O)C(C)(C)NC(=O)[C@H](Cc2c[nH]c3ccccc23)NC(=O)[C@H](CCC(=O)O)NC(=O)C(C)(C)NC1=O [Example 311] (cyclo([Phe(4-tBu)][4Pal][Phe(4-COOH)]G[Pro(cis-4-F)][Trp(βS-Me,4-F)][Aib]EW[Aib][Ala(pyrimidin-5-yl)]Q[Dab]G[dPro(4R-(4-pyridylmethyl))]))	0.017 nM
C[C@@H](c1c[nH]c2cccc(F)c12)[C@@H]1NC(=O)[C@@H]2C[C@H](F)CN2C(=O)CNC(=O)[C@H](Cc2ccc(C(=O)O)cc2)NC(=O)[C@H](Cc2ccncc2)NC(=O)[C@H](Cc2ccc(-c3ccc(C(=O)O)cc3)cc2)NC(=O)[C@H]2[C@@H](Cc3ccc(F)cc3)CCN2C(=O)CNC(=O)[C@H](CCN)NC(=O)[C@H](CCC(N)=O)NC(=O)[C@H](Cc2ccncn2)NC(=O)C(C)(C)NC(=O)[C@H](Cc2c[nH]c3ccccc23)NC(=O)[C@H](CCC(=O)O)NC(=O)C(C)(C)NC1=O [Example 312] (cyclo([Bip(4'-COOH)][4Pal][Phe(4-COOH)]G[Pro(cis-4-F)][Trp(βS-Me,4-F)][Aib]EW[Aib][X6]Q[Dab]G[dPro(3S-(4-F-Bn))]))	0.017 nM
C[C@@H](c1c[nH]c2cccc(F)c12)[C@@H]1NC(=O)[C@@H]2C[C@H](F)CN2C(=O)CNC(=O)[C@H](Cc2ccc(C(=O)O)cc2)NC(=O)[C@H](Cc2ccncc2)NC(=O)[C@H](Cc2ccc(-c3ccc(C(=O)O)cc3)cc2)NC(=O)[C@H]2C[C@@H](Cc3ccc(F)cc3)CN2C(=O)CNC(=O)[C@H](CCN)NC(=O)[C@H](CCC(N)=O)NC(=O)[C@H](CC2CCOCC2)NC(=O)[C@@](C)(CC(=O)O)NC(=O)[C@H](Cc2c[nH]c3ccccc23)NC(=O)[C@H](CO)NC(=O)C(C)(C)NC1=O [Example 313] (cyclo([Bip(4'-COOH)][4Pal][Phe(4-COOH)]G[Pro(cis-4-F)][Trp(βS-Me,4-F)][Aib]SW[d(αMeD)][Ala(4-THP)]Q[Dab]G[dPro(4R-Bzl(4-F))]))	0.015 nM
C[C@@H](c1c[nH]c2cccc(F)c12)[C@@H]1NC(=O)[C@@H]2C[C@H](F)CN2C(=O)CNC(=O)[C@H](Cc2ccc(C(=O)O)cc2)NC(=O)[C@H](Cc2ccncc2)NC(=O)[C@H](Cc2ccc(-c3ccc(C(=O)O)cc3)cc2)NC(=O)[C@H]2C[C@@H](Cc3ccc(F)cc3)CN2C(=O)CNC(=O)[C@H](CCN)NC(=O)[C@H](CCC(N)=O)NC(=O)[C@H](CC[N+](C)(C)C)NC(=O)C(C)(C)NC(=O)[C@H](Cc2c[nH]c3ccccc23)NC(=O)[C@H](CO)NC(=O)C(C)(C)NC1=O [Example 314] (cyclo([Bip(4'-COOH)][4Pal][Phe(4-COOH)]G[Pro(cis-4-F)][Trp(βS-Me,4-F)][Aib]SW[Aib][X34]Q[Dab]G[dPro(4R-Bzl(4-F))]))	0.02 nM
CC(=O)NCCOc1ccc(C[C@@H]2NC(=O)[C@H]3C[C@@H](Cc4ccncc4)CN3C(=O)CNC(=O)[C@H](CCN)NC(=O)[C@H](CCC(N)=O)NC(=O)[C@H](Cc3cc(C)on3)NC(=O)C(C)(C)NC(=O)[C@H](Cc3c[nH]c4ccccc34)NC(=O)[C@H](CCC(=O)O)NC(=O)C(C)(C)NC(=O)[C@H]([C@@H](C)c3c[nH]c4cccc(F)c34)NC(=O)[C@@H]3C[C@H](F)CN3C(=O)CNC(=O)[C@H](Cc3ccc(C(=O)O)cc3)NC(=O)[C@H](Cc3ccncc3)NC2=O)cc1 [Example 315] (cyclo([AEF](Ac)[4Pal][Phe(4-COOH)]G[Pro(cis-4-F)][Trp(βS-Me,4-F)][Aib]EW[Aib][X45]Q[Dab]G[dPro(4R-(4-pyridylmethyl))]))	0.018 nM
CC(=O)NCCOc1ccc(C[C@@H]2NC(=O)[C@H]3C[C@@H](Cc4ccncc4)CN3C(=O)CNC(=O)[C@H](CCN)NC(=O)[C@H](CCC(N)=O)NC(=O)[C@H](Cc3ncco3)NC(=O)C(C)(C)NC(=O)[C@H](Cc3c[nH]c4ccccc34)NC(=O)[C@H](CCC(=O)O)NC(=O)C(C)(C)NC(=O)[C@H]([C@@H](C)c3c[nH]c4cccc(F)c34)NC(=O)[C@@H]3C[C@H](F)CN3C(=O)CNC(=O)[C@H](Cc3ccc(C(=O)O)cc3)NC(=O)[C@H](Cc3ccncc3)NC2=O)cc1 [Example 316] (cyclo([AEF](Ac)[4Pal][Phe(4-COOH)]G[Pro(cis-4-F)][Trp(βS-Me,4-F)][Aib]EW[Aib][X38]Q[Dab]G[dPro(4R-(4-pyridylmethyl))]))	0.02 nM
CC(=O)NCCOc1ccc(C[C@@H]2NC(=O)[C@H]3C[C@@H](Cc4ccncc4)CN3C(=O)CNC(=O)[C@H](CCN)NC(=O)[C@H](CCC(N)=O)NC(=O)[C@H](Cc3c[nH]cn3)NC(=O)C(C)(C)NC(=O)[C@H](Cc3c[nH]c4ccccc34)NC(=O)[C@H](CCC(=O)O)NC(=O)C(C)(C)NC(=O)[C@H]([C@@H](C)c3c[nH]c4cccc(F)c34)NC(=O)[C@@H]3C[C@H](F)CN3C(=O)CNC(=O)[C@H](Cc3ccc(C(=O)O)cc3)NC(=O)[C@H](Cc3ccncc3)NC2=O)cc1 [Example 317] (cyclo([AEF](Ac)[4Pal][Phe(4-COOH)]G[Pro(cis-4-F)][Trp(βS-Me,4-F)][Aib]EW[Aib]HQ[Dab]G[dPro(4R-(4-pyridylmethyl))]))	0.015 nM
CC(=O)NCCOc1ccc(C[C@@H]2NC(=O)[C@H]3C[C@@H](Cc4ccncc4)CN3C(=O)CNC(=O)[C@H](CCN)NC(=O)[C@H](CCC(N)=O)NC(=O)[C@H](CCc3ccncc3)NC(=O)C(C)(C)NC(=O)[C@H](Cc3c[nH]c4ccccc34)NC(=O)[C@H](CCC(=O)O)NC(=O)C(C)(C)NC(=O)[C@H]([C@@H](C)c3c[nH]c4cccc(F)c34)NC(=O)[C@@H]3C[C@H](F)CN3C(=O)CNC(=O)[C@H](Cc3ccc(C(=O)O)cc3)NC(=O)[C@H](Cc3ccncc3)NC2=O)cc1 [Example 318] (cyclo([AEF](Ac)[4Pal][Phe(4-COOH)]G[Pro(cis-4-F)][Trp(βS-Me,4-F)][Aib]EW[Aib][h4Pal]Q[Dab]G[dPro(4R-(4-pyridylmethyl))]))	0.025 nM
C[C@@H](c1c[nH]c2cccc(F)c12)[C@@H]1NC(=O)[C@@H]2C[C@H](F)CN2C(=O)CNC(=O)[C@H](Cc2ccc(C(=O)O)cc2)NC(=O)[C@H](Cc2ccncc2)NC(=O)[C@H](Cc2ccc(-c3ccc(C(=O)O)cc3)cc2)NC(=O)[C@H]2C[C@@H](Cc3ccc(F)cc3)CN2C(=O)CNC(=O)[C@H](CCN)NC(=O)[C@H](CCC(N)=O)NC(=O)[C@H](CN2CCOCC2)NC(=O)[C@@](C)(CC(=O)O)NC(=O)[C@H](Cc2c[nH]c3ccccc23)NC(=O)[C@H](CO)NC(=O)C(C)(C)NC1=O [Example 319] (cyclo([Bip(4'-COOH)][4Pal][Phe(4-COOH)]G[Pro(cis-4-F)][Trp(βS-Me,4-F)][Aib]SW[d(αMeD)][Ala(morpholin-4-yl)]Q[Dab]G[dPro(4R-Bzl(4-F))]))	0.017 nM
C[C@@H](c1c[nH]c2cccc(F)c12)[C@@H]1NC(=O)[C@@H]2C[C@H](F)CN2C(=O)CNC(=O)[C@H](Cc2ccc(C(=O)O)cc2)NC(=O)[C@H](Cc2ccncc2)NC(=O)[C@H](Cc2ccc(-c3ccc(C(=O)O)cc3)cc2)NC(=O)[C@H]2C[C@@H](Cc3ccc(F)cc3)CN2C(=O)CNC(=O)[C@H](CCN)NC(=O)[C@H](CCC(N)=O)NC(=O)[C@H](CC2CCNCC2)NC(=O)[C@@](C)(CC(=O)O)NC(=O)[C@H](Cc2c[nH]c3ccccc23)NC(=O)[C@H](CO)NC(=O)C(C)(C)NC1=O [Example 320] (cyclo([Bip(4'-COOH)][4Pal][Phe(4-COOH)]G[Pro(cis-4-F)][Trp(βS-Me,4-F)][Aib]SW[d(αMeD)][Ala(piperidin-4-yl)]Q[Dab]G[dPro(4R-Bzl(4-F))]))	0.015 nM
C[C@@H](c1c[nH]c2cccc(F)c12)[C@@H]1NC(=O)[C@@H]2C[C@H](F)CN2C(=O)CNC(=O)[C@H](Cc2ccc(C(=O)O)cc2)NC(=O)[C@H](Cc2ccncc2)NC(=O)[C@H](Cc2ccc(-c3ccc(C(=O)O)cc3)cc2)NC(=O)[C@H]2C[C@@H](Cc3ccc(F)cc3)CN2C(=O)CNC(=O)[C@H](CCN)NC(=O)[C@H](CCC(N)=O)NC(=O)[C@H](Cc2cnccn2)NC(=O)[C@@](C)(CC(=O)O)NC(=O)[C@H](Cc2c[nH]c3ccccc23)NC(=O)[C@H](CO)NC(=O)C(C)(C)NC1=O [Example 321] (cyclo([Bip(4'-COOH)][4Pal][Phe(4-COOH)]G[Pro(cis-4-F)][Trp(βS-Me,4-F)][Aib]SW[d(αMeD)][Ala(2-pyrazinyl)]Q[Dab]G[dPro(4R-Bzl(4-F))]))	0.015 nM
